Each structure is given as a SMILES string. Where a name gives a salt, the structure may show the parent alone. Bounds are passed on as bounds.

The values that follow come from US20070049593A1 (priority 2004, published 2007).

In this experiment the target is T1, HCV polymerase (Hepatitis C virus genotype 1b, UniProt P26663).
T1 construct: a region encoding NS5B (J Virol 1991 March, 65(3), 1105-13, 544 amino acids after deletion of 47 amino acids on the C-terminal); 6xHis (C); made in house; host or cells: Escherichia coli
T1 sequence (P26663 2420-2963): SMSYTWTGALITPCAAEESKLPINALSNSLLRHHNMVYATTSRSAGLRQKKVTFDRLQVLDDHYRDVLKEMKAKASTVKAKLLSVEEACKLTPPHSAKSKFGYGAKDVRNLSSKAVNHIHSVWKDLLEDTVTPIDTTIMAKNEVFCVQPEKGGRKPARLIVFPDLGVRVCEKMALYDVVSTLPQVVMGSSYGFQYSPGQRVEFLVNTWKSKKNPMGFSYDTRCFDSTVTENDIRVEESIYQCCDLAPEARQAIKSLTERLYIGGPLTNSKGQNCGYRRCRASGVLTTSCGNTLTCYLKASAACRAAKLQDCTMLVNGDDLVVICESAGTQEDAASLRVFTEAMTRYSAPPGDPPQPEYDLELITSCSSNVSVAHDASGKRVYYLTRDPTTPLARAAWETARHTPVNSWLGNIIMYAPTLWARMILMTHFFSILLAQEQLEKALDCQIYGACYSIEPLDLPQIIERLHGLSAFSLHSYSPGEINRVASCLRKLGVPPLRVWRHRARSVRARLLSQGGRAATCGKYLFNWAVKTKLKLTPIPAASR
Kind of experiment: biochemical. Set-up: species or system HCV BK strain. A digest of the protocol:
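His-tagged NS5B (BK strain, 47-aa C-terminal deletion, E. coli-expressed) at 0.5 μg/ml copied 5 μg/ml run-off RNA bearing the HCV 3′ UTR with 2 μM UTP plus [3H]UTP, 50 μM ATP/GTP, in pH 7.5 Tris with 5 mM MgCl2, 25 °C, 90 min. TCA-precipitated RNA was counted and IC50 calculated.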
Usually IC50 stands for the concentration at which inhibition is half-maximal. Lower therefore signals inhibition by little substance. Turning to `O=C(O)c1ccc2c(C3CCCCC3)c3n(c2c1)CCNc1cc(OCc2cc(N4CCCC4=O)ccc2N2CCOCC2)ccc1-3` [Example 1-100, 13-cyclohexyl-3-[2-(morpholin-4-yl)-5-(2-oxopyrrolidin-1-yl)benzyloxy]-6,7-dihydro-5H-benzo[5,6][1,4]diazepino[7,1-a]indole-10-carboxylic acid dihydrochloride], the IC50 is less than 100 nM.
For the compound `CS(=O)(=O)c1ccc(N2CCOCC2)c(COc2ccc3c(c2)NCCn2c-3c(C3CCCCC3)c3ccc(C(=O)O)cc32)c1` [Example 1-101, 13-cyclohexyl-3-[5-methanesulfonyl-2-(morpholin-4-yl)benzyloxy]-6,7-dihydro-5H-benzo[5,6][1,4]diazepino[7,1-a]indole-10-carboxylic acid dihydrochloride], the IC50 is less than 100 nM.
With `CCN1CCN(C(=O)CN2CCn3c(c(C4CCCCC4)c4ccc(C(=O)NC(C)=O)cc43)-c3ccccc32)CC1` [Example 1-102, N-acetyl-13-cyclohexyl-5-[2-(4-ethylpiperazin-1-yl)-2-oxoethyl]-6,7-dihydro-5H-benzo[5,6][1,4]diazepino[7,1-a]indole-10-carboxamide], the IC50 is less than 100 nM.
The compound `CN1CCn2c(c(C3CCCCC3)c3ccc(C(=O)O)cc32)-c2ccc(OCc3cc(S(C)(=O)=O)ccc3N3CCOCC3)cc21` [Example 1-103, 13-cyclohexyl-3-[5-methanesulfonyl-2-(morpholin-4-yl)benzyloxy]-5-methyl-6,7-dihydro-5H-benzo[5,6][1,4]diazepino[7,1-a]indole-10-carboxylic acid dihydrochloride] had an IC50 of less than 100 nM.
Take `COC(=O)N1CCN(CCN2CCn3c(c(C4CCCCC4)c4ccc(C(=O)O)cc43)-c3ccccc32)CC1` [Example 1-104, 13-cyclohexyl-5-[2-(4-methoxycarbonylpiperazin-1-yl)ethyl]-6,7-dihydro-5H-benzo[5,6][1,4]diazepino[7,1-a]indole-10-carboxylic acid dihydrochloride]: the IC50 is less than 100 nM.
The result for `O=C(O)c1ccc2c(C3CCCCC3)c3n(c2c1)CCN(CCCOC1CCCCO1)c1ccccc1-3` (centres unmarked) [Example 1-105, 13-cyclohexyl-5-[3-(tetrahydropyran-2-yloxy)propyl]-6,7-dihydro-5H-benzo[5,6][1,4]diazepino[7,1-a]indole-10-carboxylic acid] reads less than 100 nM; that for `O=C(O)c1ccc2c(C3CCCCC3)c3n(c2c1)CCN(CC(=O)N1CCCC(O)C1)c1ccccc1-3` (centres unmarked) [Example 1-106, 13-cyclohexyl-5-[2-(3-hydroxypiperidin-1-yl)-2-oxoethyl]-6,7-dihydro-5H-benzo[5,6][1,4]diazepino[7,1-a]indole-10-carboxylic acid monohydrochloride], less than 100 nM.
For `O=C(O)c1ccc2c(C3CCCCC3)c3n(c2c1)CCN(CCN1CCOCC1)c1cc(F)ccc1-3` [Example 1-107, 13-cyclohexyl-3-fluoro-5-[2-(morpholin-4-yl)ethyl]-6,7-dihydro-5H-benzo[5,6][1,4]diazepino[7,1-a]indole-10-carboxylic acid dihydrochloride] the value was less than 100 nM; for `Cc1ccc2c(c1)N(CCN1CCCCC1)CCn1c-2c(C2CCCCC2)c2ccc(C(=O)O)cc21` [Example 1-108, 13-cyclohexyl-3-methyl-5-[2-(piperidin-1-yl)ethyl]-6,7-dihydro-5H-benzo[5,6][1,4]diazepino[7,1-a]indole-10-carboxylic acid dihydrochloride], less than 100 nM.
As for `O=C(O)c1ccc2c(C3CCCCC3)c3n(c2c1)CCN(CC(=O)N1CCOCC1)c1cc(F)ccc1-3` [Example 1-109, 13-cyclohexyl-3-fluoro-5-[2-(morpholin-4-yl)-2-oxoethyl]-6,7-dihydro-5H-benzo[5,6][1,4]diazepino[7,1-a]indole-10-carboxylic acid monohydrochloride], the concentration for half-maximal inhibition (IC50) is less than 100 nM.
For `CCN1CCN(CCN2CCn3c(c(C4CCCCC4)c4ccc(C(=O)O)cc43)-c3ccc(C)cc32)CC1` [Example 1-110, 13-cyclohexyl-5-[2-(4-ethylpiperazin-1-yl)ethyl]-3-methyl-6,7-dihydro-5H-benzo[5,6][1,4]diazepino[7,1-a]indole-10-carboxylic acid trihydrochloride] the value was less than 100 nM; for `O=C(O)c1ccc2c(C3CCCCC3)c3n(c2c1)CCN(CCCN1CCCCC1)c1ccccc1-3` [Example 1-111, 13-cyclohexyl-5-[3-(piperidin-1-yl)propyl]-6,7-dihydro-5H-benzo[5,6][1,4]diazepino[7,1-a]indole-10-carboxylic acid dihydrochloride], less than 100 nM; for `O=C(O)c1ccc2c(C3CCCCC3)c3n(c2c1)CCN(CCCO)c1ccccc1-3` [Example 1-112, 13-cyclohexyl-5-(3-hydroxypropyl)-6,7-dihydro-5H-benzo[5,6][1,4]diazepino[7,1-a]indole-10-carboxylic acid monohydrochloride], less than 100 nM.
For `O=C(O)c1ccc2c(C3CCCCC3)c3n(c2c1)CCN(CCN1CCCC(O)C1)c1ccccc1-3` (centres unmarked) [Example 1-113, 13-cyclohexyl-5-[2-(3-hydroxypiperidin-1-yl)ethyl]-6,7-dihydro-5H-benzo[5,6][1,4]diazepino[7,1-a]indole-10-carboxylic acid dihydrochloride] the value was less than 100 nM; for `O=C(O)c1ccc2c(C3CCCCC3)c3n(c2c1)CCN(CC(=O)N1CCCCC1)c1cc(F)ccc1-3` [Example 1-114, 13-cyclohexyl-3-fluoro-5-[2-oxo-2-(piperidin-1-yl)ethyl]-6,7-dihydro-5H-benzo[5,6][1,4]diazepino[7,1-a]indole-10-carboxylic acid monohydrochloride], less than 100 nM.
For `Cc1ccc2c(c1)N(CC(=O)N1CCCCC1)CCn1c-2c(C2CCCCC2)c2ccc(C(=O)O)cc21` [Example 1-115, 13-cyclohexyl-3-methyl-5-[2-oxo-2-(piperidin-1-yl)ethyl]-6,7-dihydro-5H-benzo[5,6][1,4]diazepino[7,1-a]indole-10-carboxylic acid monohydrochloride] the value was less than 100 nM; for `O=C(O)c1ccc2c(C3CCCCC3)c3n(c2c1)CCN(CCN1CCCCC1)c1cc(F)ccc1-3` [Example 1-116, 13-cyclohexyl-3-fluoro-5-[2-(piperidin-1-yl)ethyl]-6,7-dihydro-5H-benzo[5,6][1,4]diazepino[7,1-a]indole-10-carboxylic acid dihydrochloride], less than 100 nM; for `CCN1CCN(C(=O)CN2CCn3c(c(C4CCCCC4)c4ccc(C(=O)O)cc43)-c3ccc(C)cc32)CC1` [Example 1-117, 13-cyclohexyl-5-[2-(4-ethylpiperazin-1-yl)-2-oxoethyl]-3-methyl-6,7-dihydro-5H-benzo[5,6][1,4]diazepino[7,1-a]indole-10-carboxylic acid dihydrochloride], less than 100 nM.
`CC(=O)N1CCC(CN2CCn3c(c(C4CCCCC4)c4ccc(C(=O)O)cc43)-c3ccccc32)CC1` [Example 1-118, 5-(1-acetylpiperidin-4-ylmethyl)-13-cyclohexyl-6,7-dihydro-5H-benzo[5,6][1,4]diazepino[7,1-a]indole-10-carboxylic acid monohydrochloride] registered an IC50 of less than 100 nM.
Regarding `CC(C)N1CCC(CCN2CCn3c(c(C4CCCCC4)c4ccc(C(=O)O)cc43)-c3ccccc32)CC1` [Example 1-119, 13-cyclohexyl-5-[2-(1-isopropylpiperidin-4-yl)ethyl]-6,7-dihydro-5H-benzo[5,6][1,4]diazepino[7,1-a]indole-10-carboxylic acid dihydrochloride], the IC50 was less than 100 nM.
The result for `O=C(O)c1ccc2c(C3CCCCC3)c3n(c2c1)CCN(CC1CCOCC1)c1ccccc1-3` [Example 1-120, 13-cyclohexyl-5-(tetrahydropyran-4-ylmethyl)-6,7-dihydro-5H-benzo[5,6][1,4]diazepino[7,1-a]indole-10-carboxylic acid monohydrochloride] reads less than 100 nM; that for `CC1CCCN(C(=O)CN2CCn3c(c(C4CCCCC4)c4ccc(C(=O)O)cc43)-c3ccccc32)C1` (centres unmarked) [Example 1-122, 13-cyclohexyl-5-[2-(3-methylpiperidin-1-yl)-2-oxoethyl]-6,7-dihydro-5H-benzo[5,6][1,4]diazepino[7,1-a]indole-10-carboxylic acid monohydrochloride], less than 100 nM; that for `CCN1CCC(=CCN2CCn3c(c(C4CCCCC4)c4ccc(C(=O)O)cc43)-c3ccccc32)CC1` [Example 1-123, 13-cyclohexyl-5-[2-(1-ethylpiperidin-4-ylidene)ethyl]-6,7-dihydro-5H-benzo[5,6][1,4]diazepino[7,1-a]indole-10-carboxylic acid dihydrochloride], less than 100 nM.
The result for `CC(C)C1CCN(C(=O)CN2CCn3c(c(C4CCCCC4)c4ccc(C(=O)O)cc43)-c3ccccc32)CC1` [Example 1-124, 13-cyclohexyl-5-[2-(4-isopropylpiperidin-1-yl)-2-oxoethyl]-6,7-dihydro-5H-benzo[5,6][1,4]diazepino[7,1-a]indole-10-carboxylic acid monohydrochloride] reads less than 100 nM; that for `COC1CCCN(C(=O)CN2CCn3c(c(C4CCCCC4)c4ccc(C(=O)O)cc43)-c3ccccc32)C1` (centres unmarked) [Example 1-125, 13-cyclohexyl-5-[2-(3-methoxypiperidin-1-yl)-2-oxoethyl]-6,7-dihydro-5H-benzo[5,6][1,4]diazepino[7,1-a]indole-10-carboxylic acid monohydrochloride], less than 100 nM; that for `O=C(O)c1ccc2c(C3CCCCC3)c3n(c2c1)CCN(Cc1ccccn1)c1ccccc1-3` [Example 1-126, 13-cyclohexyl-5-(pyridin-2-ylmethyl)-6,7-dihydro-5H-benzo[5,6][1,4]diazepino[7,1-a]indole-10-carboxylic acid dihydrochloride], less than 100 nM.
